Consider 19 compounds from patent publication US20240190849A1, “AMINOPYRIMIDINE COMPOUNDS AND METHODS OF THEIR USE” (TYRA BIOSCIENCES, INC., priority 2021, published 2024).

The term Kd denotes a measure of binding affinity in units of concentration. High values mean weaker binding, low ones tighter binding. By IC50 is commonly meant the concentration that gives 50% inhibition.

One test deals with T1, FGFR1 (Homo sapiens, UniProt P11362).
T1 construct: made in house; host or cells: E. coli derived from BL21, infected with T7 phage
T1 sequence (P11362 22-822): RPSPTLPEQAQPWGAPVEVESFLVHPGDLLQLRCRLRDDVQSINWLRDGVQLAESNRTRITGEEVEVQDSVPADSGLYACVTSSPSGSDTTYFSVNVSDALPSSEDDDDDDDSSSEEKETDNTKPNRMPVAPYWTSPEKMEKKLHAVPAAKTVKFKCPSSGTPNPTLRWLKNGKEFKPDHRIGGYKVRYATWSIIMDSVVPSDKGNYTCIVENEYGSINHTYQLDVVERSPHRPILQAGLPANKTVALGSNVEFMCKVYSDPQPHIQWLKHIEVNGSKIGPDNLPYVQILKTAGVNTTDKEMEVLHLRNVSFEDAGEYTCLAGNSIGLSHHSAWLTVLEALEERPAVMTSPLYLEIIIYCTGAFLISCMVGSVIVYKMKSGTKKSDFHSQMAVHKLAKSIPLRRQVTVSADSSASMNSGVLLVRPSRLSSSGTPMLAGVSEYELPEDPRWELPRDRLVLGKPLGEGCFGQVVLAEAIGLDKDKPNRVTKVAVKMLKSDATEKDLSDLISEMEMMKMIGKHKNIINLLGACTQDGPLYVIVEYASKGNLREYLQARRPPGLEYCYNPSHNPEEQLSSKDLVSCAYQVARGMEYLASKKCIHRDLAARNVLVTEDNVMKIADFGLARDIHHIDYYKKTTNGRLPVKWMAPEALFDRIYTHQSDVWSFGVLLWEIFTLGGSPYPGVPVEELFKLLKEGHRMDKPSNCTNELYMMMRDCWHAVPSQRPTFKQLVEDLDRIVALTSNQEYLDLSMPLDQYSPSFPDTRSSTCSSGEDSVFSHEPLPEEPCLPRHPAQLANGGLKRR
Briefly: Kinase binding assay (kinase-tagged T7 phage, affinity beads, qPCR readout), FGFR1. As to conditions: FGFR binding data. In a few lines: (§1)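 Dissociation constants were measured by bead-capture competition at 0.9% DMSO, room temperature, 1 hour. qPCR of eluted kinase supplied the signal.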
(In general: Quantitative PCR measures a nucleic acid by following its amplification.)

Test [1] relates to SNU-16 (Gastric Carcinoma), FGFR2 amplification. The test can be described thus: Cancer cell viability assay (Cell Titer-Glo), SNU-16. Conditions: Homo sapiens, SNU-16 cells, 72 hours, read-out: SNU16 FGFR2 (IC50 nM). The class given is cell-based. From the text:
RT112/84, UM-UC-14, SNU-16 and KG-1 Cancer Cell Line Cell Viability Assays
To detect the change of intracellular ATP by Cell Titer-Glo@ and to evaluate the inhibitory effect of the compounds on cancer cell lines by determining the in vitro IC50 value of the compounds.
Cell Titer-Glo@ 2.0 Luminescent cell viability assay reagent was purchased from Promega (Madison, WI). RT112/84, SNU-16, and KG-1 cell lines were purchased from American Type Culture Collection (Manassas, VA). UM-UC-14 cell line was purchased from Sigma (St. Louis, MO). RT112/84, UM-UC-14, SNU-16, and KG-1 cells were cultured in RPMI1640 media supplemented with 10% fetal bovine serum. Cultures were maintained at 37° C. in a humidified atmosphere of 5% CO2 and 95% air.
Cell Viability Assay Procedure: Cells were plated in 96-well clear bottom/white plates (Corning #3903) at 10,000 cells/well in 100 μl of media, incubated overnight. The next day, test compound DMSO stock solutions were made at 10 mM and 2 μM final concentration. Compounds were then added to cells in a 9-dose, […] dilution series starting at 30 μM with an HP 300e Digital Dispenser (each dose was applied in triplicate). DMSO was backfilled to each well up to 301 nL total volume of test compound+DMSO, and a total of 301 nL DMSO was added to a control/no test compound well in triplicate. The cells in cell culture plates were incubated with the compounds at 37° C. and 5% CO2 for 72 hours. Then 50 μl of Cell Titer Glo 2.0 reagent was added to each well of the cell culture plates. The contents were covered from light and mixed on an orbital shaker at room temperature for 10 min. Luminescence was recorded by a Synergy H1 Microplate Reader (Biotek, Winooski, VT). Cells were assessed as a percentage of DMSO only treated control cells. Curves were plotted and IC50 values were calculated using the GraphPad Prism 8 program based on a sigmoidal dose-response equation (4 parameter).
A general note: In ATP-based viability assays light output follows the ATP content of the culture.

Another test concerns the target T2, FGFR3 (V555M) (Homo sapiens, UniProt P22607, V555M).
T2 construct: made in house; host or cells: E. coli derived from BL21, infected with T7 phage
The test can be described thus: Kinase binding assay (kinase-tagged T7 phage, affinity beads, qPCR readout), FGFR3 (V555M). Conditions: FGFR binding data. In a few lines: as §1

In a further test the target is T3, FGFR2 (Homo sapiens, UniProt P21802).
T3 construct: made in house; host or cells: E. coli derived from BL21, infected with T7 phage
T3 sequence (P21802 22-821): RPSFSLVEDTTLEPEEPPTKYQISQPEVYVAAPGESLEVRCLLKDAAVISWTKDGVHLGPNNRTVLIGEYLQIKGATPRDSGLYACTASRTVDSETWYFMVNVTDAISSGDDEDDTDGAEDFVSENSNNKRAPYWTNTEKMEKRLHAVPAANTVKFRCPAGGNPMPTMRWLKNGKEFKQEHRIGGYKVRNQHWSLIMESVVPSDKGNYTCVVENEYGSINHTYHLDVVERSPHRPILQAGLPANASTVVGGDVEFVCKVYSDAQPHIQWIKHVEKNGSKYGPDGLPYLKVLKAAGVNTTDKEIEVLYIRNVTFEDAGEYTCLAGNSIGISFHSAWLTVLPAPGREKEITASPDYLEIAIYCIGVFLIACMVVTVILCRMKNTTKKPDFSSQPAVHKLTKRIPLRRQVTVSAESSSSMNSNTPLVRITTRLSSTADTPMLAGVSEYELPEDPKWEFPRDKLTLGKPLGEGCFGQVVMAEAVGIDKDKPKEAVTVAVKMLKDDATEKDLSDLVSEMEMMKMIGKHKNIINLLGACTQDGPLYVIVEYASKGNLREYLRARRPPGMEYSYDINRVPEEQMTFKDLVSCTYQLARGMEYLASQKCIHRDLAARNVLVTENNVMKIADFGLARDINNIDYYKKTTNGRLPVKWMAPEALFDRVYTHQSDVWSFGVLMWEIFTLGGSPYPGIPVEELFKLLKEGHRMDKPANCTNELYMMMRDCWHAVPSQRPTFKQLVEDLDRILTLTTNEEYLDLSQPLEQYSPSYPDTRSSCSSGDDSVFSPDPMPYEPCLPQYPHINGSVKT
The test can be described thus: Kinase binding assay (kinase-tagged T7 phage, affinity beads, qPCR readout), FGFR2. Conditions: FGFR binding data. In a few lines:
as §1

For another test, the target named is T4, FGFR3 (Homo sapiens, UniProt P22607).
T4 construct: made in house; host or cells: E. coli derived from BL21, infected with T7 phage
T4 sequence (P22607 23-806): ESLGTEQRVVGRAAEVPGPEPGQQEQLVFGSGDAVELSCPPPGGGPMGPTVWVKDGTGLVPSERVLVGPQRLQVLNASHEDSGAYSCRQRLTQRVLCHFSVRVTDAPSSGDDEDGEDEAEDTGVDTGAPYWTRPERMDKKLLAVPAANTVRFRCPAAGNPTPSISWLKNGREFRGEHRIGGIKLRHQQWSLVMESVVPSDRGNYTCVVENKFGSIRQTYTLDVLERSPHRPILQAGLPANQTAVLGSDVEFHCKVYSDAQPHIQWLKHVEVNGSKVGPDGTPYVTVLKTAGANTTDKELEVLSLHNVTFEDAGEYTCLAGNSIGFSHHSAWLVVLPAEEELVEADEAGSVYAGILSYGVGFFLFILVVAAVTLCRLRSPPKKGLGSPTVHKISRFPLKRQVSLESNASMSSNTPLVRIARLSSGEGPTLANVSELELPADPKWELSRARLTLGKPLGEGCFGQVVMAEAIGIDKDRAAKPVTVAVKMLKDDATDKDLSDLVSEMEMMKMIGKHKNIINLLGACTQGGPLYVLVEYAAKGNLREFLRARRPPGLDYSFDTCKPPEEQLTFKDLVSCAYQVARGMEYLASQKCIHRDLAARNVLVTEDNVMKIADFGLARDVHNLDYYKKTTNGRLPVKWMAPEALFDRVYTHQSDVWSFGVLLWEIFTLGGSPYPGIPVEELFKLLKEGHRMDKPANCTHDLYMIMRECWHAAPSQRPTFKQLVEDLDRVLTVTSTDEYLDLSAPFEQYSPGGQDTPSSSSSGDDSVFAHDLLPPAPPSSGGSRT
The test can be described thus: Kinase binding assay (kinase-tagged T7 phage, affinity beads, qPCR readout), FGFR3. As to conditions: FGFR binding data. In short, it runs like this: as §1

T2 sequence (P22607 23-806 V555M): as the sequence (P22607 23-806) above, with V533M counted along it

Turning to `C=CC(=O)Nc1ccc2c(c1)c(C)cn2-c1nc(Nc2cc(C)n(C)n2)ncc1C` [Example 102, N-[1-[2-[(1,5-dimethylpyrazol-3-yl)amino]-5-methyl-pyrimidin-4-yl]-3-methyl-indol-5-yl]prop-2-enamide], the Kd on FGFR1, at FGFR3 (V555M), at FGFR2 and at FGFR3 was 0.1 to 100 nM each time. The half-maximal inhibitory concentration (IC50) in test [1] lay in the range of 0.1 to 100 nM.

In the case of `C=CC(=O)Nc1ccc2c(-c3nc(Nc4cnn(CCO)c4)ncc3F)cn(C)c2c1` [Example 128, N-[3-[5-fluoro-2-[[1-(2-hydroxyethyl)pyrazol-4-yl]amino]pyrimidin-4-yl]-1-methyl-indol-6-yl]prop-2-enamide], the Kd on FGFR1, at FGFR3 (V555M), at FGFR2 and at FGFR3 was 0.1 to 100 nM throughout. Also, in test [1], the IC50 lay in the range of 0.1 to 100 nM.

Consider `C=CC(=O)Nc1ccc2c(-c3nc(Nc4cn(C)nc4C)ncc3F)cn(C)c2c1` [Example 154, N-[3-[2-[(1,3-dimethylpyrazol-4-yl)amino]-5-fluoro-pyrimidin-4-yl]-1-methyl-indol-6-yl]prop-2-enamide], for which the Kd at FGFR1 fell in the range of 250 to 1000 nM; at FGFR3 (V555M) it was 0.1 to 100 nM; at FGFR2, 0.1 to 100 nM; on FGFR3 it was 0.1 to 100 nM. In addition, the IC50 in test [1] was in the range of 0.1 to 100 nM.

For `CC#CC(=O)Nc1cnc2c(c1)c(C)cn2-c1nc(Nc2ccnn2C)ncc1C` [Example 131, N-[3-methyl-1-[5-methyl-2-[(2-methylpyrazol-3-yl)amino]pyrimidin-4-yl]pyrrolo[2,3-b]pyridin-5-yl]but-2-ynamide], the Kd on FGFR1, at FGFR3 (V555M), on FGFR2 and at FGFR3 was above 1000 nM each time.

Turning to `C#CC(=O)Nc1ccc2c(-c3ccnc(Nc4cnn(CCO)c4)n3)cn(C)c2c1` [Example 143, N-[3-[2-[[1-(2-hydroxyethyl)pyrazol-4-yl]amino]pyrimidin-4-yl]-1-methyl-indol-6-yl]prop-2-ynamide], the Kd on FGFR1, on FGFR3 (V555M), at FGFR2 and on FGFR3 was 0.1 to 100 nM in each case.

With `CC#CC(=O)Nc1ccc2c(c1)c(C)cn2-c1nc(Nc2ccnn2C)ncc1F` [Example 139, N-[1-[5-fluoro-2-[(2-methylpyrazol-3-yl)amino]pyrimidin-4-yl]-3-methyl-indol-5-yl]but-2-ynamide], the Kd at FGFR1, on FGFR3 (V555M), at FGFR2 and at FGFR3 was above 1000 nM each time.

On to `Cc1cn(-c2nc(Nc3cnn(C)c3C)ncc2F)c2ncc(NC(=O)/C=C/CN(C)C)cc12` [Example 199, (E)-4-(dimethylamino)-N-[1-[2-[(1,5-dimethylpyrazol-4-yl)amino]-5-fluoro-pyrimidin-4-yl]-3-methyl-pyrrolo[2,3-b]pyridin-5-yl]but-2-enamide], for which the dissociation constant (Kd) was 100 to 250 nM at FGFR1, 0.1 to 100 nM at FGFR3 (V555M), 0.1 to 100 nM on FGFR2 and 0.1 to 100 nM on FGFR3.

For the compound `C=CC(=O)Nc1ccc2c(c1)c(C)cn2-c1cc(Nc2cn(C)nc2C)ncc1C` [Example 224, N-[1-[2-[(1,3-dimethylpyrazol-4-yl)amino]-5-methyl-4-pyridyl]-3-methyl-indol-5-yl]prop-2-enamide], the dissociation constant (Kd) is 250 to 1000 nM on FGFR1, 100 to 250 nM at FGFR3 (V555M), 250 to 1000 nM on FGFR2 and 100 to 250 nM at FGFR3.

Turning to `C#CC(=O)Nc1ccc2c(-c3nc(Nc4cnn(CCO)c4)ncc3F)cn(C)c2c1` [Example 142, N-[3-[5-fluoro-2-[[1-(2-hydroxyethyl)pyrazol-4-yl]amino]pyrimidin-4-yl]-1-methyl-indol-6-yl]prop-2-ynamide], the equilibrium dissociation constant (Kd) on FGFR1, at FGFR3 (V555M), at FGFR2 and at FGFR3 was 0.1 to 100 nM in each case.

On to `C=CC(=O)Nc1cc(C)c2c(c1)c(C)cn2-c1nc(Nc2cnn(C)c2)ncc1Cl` [Example 84, N-[1-[5-chloro-2-[(1-methylpyrazol-4-yl)amino]pyrimidin-4-yl]-3,7-dimethyl-indol-5-yl]prop-2-enamide], for which the Kd at FGFR1, on FGFR3 (V555M), on FGFR2 and at FGFR3 was 0.1 to 100 nM each time.

Turning to `C=CC(=O)N(C)c1ccc2c(c1)c(C)cn2-c1nc(Nc2ccnn2C)ncc1C` [Example 151, N-methyl-N-[3-methyl-1-[5-methyl-2-[(2-methylpyrazol-3-yl)amino]pyrimidin-4-yl]indol-5-yl]prop-2-enamide], the Kd at FGFR1, on FGFR3 (V555M), at FGFR2 and at FGFR3 was above 1000 nM each time.

`C=CC(=O)Nc1ccc2c(-c3nc(Nc4ccc(N5CCN(C)CC5)c(OC)c4)ncc3Cl)cn(C)c2c1` [Example 48, N-[3-[5-chloro-2-[3-methoxy-4-(4-methylpiperazin-1-yl)anilino]-pyrimidin-4-yl]-1-methyl-indol-6-yl]prop-2-enamide]: the Kd on FGFR1, on FGFR3 (V555M), on FGFR2 and on FGFR3 was 0.1 to 100 nM throughout.

Take `C#CC(=O)Nc1cnc2c(c1)c(C)cn2-c1nc(Nc2ccnn2C)ncc1C` [Example 132, N-[3-methyl-1-[5-methyl-2-[(2-methylpyrazol-3-yl)amino]pyrimidin-4-yl]pyrrolo[2,3-b]pyridin-5-yl]prop-2-ynamide]: the Kd at FGFR1, on FGFR3 (V555M), at FGFR2 and at FGFR3 was 0.1 to 100 nM in each case.

`CC#CC(=O)Nc1ccc2c(c1)c(C)cn2-c1nc(Nc2ccnn2C)ncc1C` [Example 130, N-[3-methyl-1-[5-methyl-2-[(2-methylpyrazol-3-yl)amino]pyrimidin-4-yl]indol-5-yl]but-2-ynamide]: the Kd on FGFR1 was above 1000 nM; at FGFR3 (V555M), 250 to 1000 nM; at FGFR2 it was 250 to 1000 nM; at FGFR3, above 1000 nM.

`C=CC(=O)Nc1ccc2c(-c3nc(Nc4ccc(N5CCOCC5)c(OC)c4)ncc3Cl)cn(C)c2c1` [Example 51, N-[3-[5-chloro-2-(3-methoxy-4-morpholino-anilino)pyrimidin-4-yl]-1-methyl-indol-6-yl]prop-2-enamide]: the dissociation constant Kd at FGFR1, at FGFR3 (V555M), on FGFR2 and at FGFR3 was 0.1 to 100 nM throughout.

With `C=CC(=O)Nc1ccc2c(-c3ccnc(Nc4ccn(CCO)n4)n3)cn(C)c2c1` [Example 101, N-[3-[2-[[1-(2-hydroxyethyl)pyrazol-3-yl]amino]pyrimidin-4-yl]-1-methyl-indol-6-yl]prop-2-enamide], the Kd fell in the range of 100 to 250 nM on FGFR1, 100 to 250 nM at FGFR3 (V555M), 250 to 1000 nM at FGFR2 and 0.1 to 100 nM on FGFR3.

With `C=CC(=O)Nc1ccc2c(c1)c(C)cn2-c1cc(Nc2cnn(C)c2)nnc1C` [Example 221, N-[3-methyl-1-[3-methyl-6-[(1-methylpyrazol-4-yl)amino]pyridazin-4-yl]indol-5-yl]prop-2-enamide], the Kd at FGFR1, at FGFR3 (V555M), at FGFR2 and at FGFR3 was above 1000 nM each time.

As to `C#CC(=O)Nc1ccc2c(c1)c(C)cn2-c1nc(Nc2ccnn2C)ncc1F` [Example 138, N-[1-[5-fluoro-2-[(2-methylpyrazol-3-yl)amino]pyrimidin-4-yl]-3-methyl-indol-5-yl]prop-2-ynamide], the Kd at FGFR1 fell in the range of 100 to 250 nM; on FGFR3 (V555M) it was 0.1 to 100 nM; on FGFR2, 0.1 to 100 nM; on FGFR3 it was 0.1 to 100 nM.

As to `C=CC(=O)Nc1ccc2c(-c3ccnc(Nc4ccn(C)n4)n3)cn(C)c2c1` [Example 92, N-[1-methyl-3-[2-[(1-methylpyrazol-3-yl)amino]pyrimidin-4-yl]indol-6-yl]prop-2-enamide], the equilibrium dissociation constant (Kd) was in the range of 100 to 250 nM on FGFR1, 100 to 250 nM at FGFR3 (V555M), 100 to 250 nM on FGFR2 and 0.1 to 100 nM on FGFR3.
